In paper PMC9260974 (BMC Pharmacology & Toxicology, 2022):
Values joined by “and” are separate entries in the source; they are usually repeats but may differ in a detail not shown here. Equal values may be shown once. Read-outs that look alike come from different tables or passages of the source.

How the values were obtained:
[1] = human, in vivo
Protocol: (§1) All eligible subjects were assigned according to the random table generated by SAS 9.4 and took the test (T) and reference(R) drugs respectively with 240 ml water after an overnight fast of at least 10 h (fasting study) or after the high-fat breakfast within half an hour before dosing (fed study). […] Subjects were forbidden to drink water within 1 h before and after taking the drug, and the lunch and dinner were provided at 4 h and 8 h respectively post-drug administration. No other food and beverage intake was permitted except the provided diets. […] 4 ml venous blood samples were collected before drug administration and at 1,2,3,4,5,6,7,8,9,10,11,12,13,24,36,48,72,96,144,168 h after administration. The samples were centrifuged at 1700gear per minute for 10 min at 4℃ to separate the plasma, which was divided into two aliquots (drug monitoring at least 800ul and backup) and stored at - 80℃until analysis.
(§2) The lower limit of quantification (LLOQ) was 0.500 ng/mL and the assay dynamic range was 0.500-100 ng/mL.
(§3) Under multiple reaction monitoring, LC–MS/MS system adopts positive ionization mode.
(§4) Data collection and analysis was performed with Analyst 1.6.3 software (Sciex, Canada) and Watson LIMS (Thermo, USA). Calibration curves were constructed using linear regression equation obtained by the weighted (W = 1/X2) least square method fitting for both analytes. Quantitation of quality control and clinical samples were also performed by the Analyst software using the same mathematical algorithm as that used in the calibration of standard curves.
(§5) For the purpose of bioequivalence analysis, the maximum observed concentration (Cmax), the area under the plasma concentration–time curve from time 0 to the last measured time point (AUC0-t), and the area under the plasma concentration–time curve from time 0 to infinity (AUC0-∞) were considered as primary PK parameters. The secondary PK parameters were the observed time to Cmax (Tmax) and the apparent terminal half-life (T1/2). Cmax and Tmax were the factually measured data and AUC0-t was calculated using the linear and logarithmic trapezoidal methods. AUC0-∞ was calculated according to the following formula: AUC0-∞ = AUC0-t + Clast/λz (Clast is the last measurable concentration and is the first order rate constant of terminal elimination determined from a linear regression line after logarithmic transformation at the end of concentration time curve. λz is the slope calculated by linear regression after logarithmic conversion at the end of the concentration–time curve). T1/2 was calculated to be ln2/λ.
(§6) Statistical analysis was performed by SAS 9.4. Demographic characteristics, safety parameters and pharmacokinetic data were summarized using descriptive statistics, the results were presented as the mean ± SD and the differences between groups were determined by two one-sided tests. […] AUC and Cmax were logarithmically transformed and analyzed by linear mixed effect model. Sequence, period and formulation were fixed effects, and subject within sequence was included as a random effect. Analysis of variance (ANOVA) of cross-over design was performed on the log-transformed variables. […] Bioequivalence was assessed separately in both the fasting and fed groups.

blood pressure = details: after oral administration; cited from earlier work
clinical = details: human, plasma, po
Protocol: as §1, §2, §3, §4, §5, §6

[2] = lisinopril; cited from earlier work
[3] = Single-dose two-period crossover bioequivalence study, fed (high-fat breakfast): plasma pharmacokinetics of lisinopril and amlodipine (LC-MS/MS, NCA); details: for concentration at 3 h / concentration at 10 h / concentration at 6 h / concentration at 5 h / concentration at 7 h / concentration at 8 h / concentration at 11 h / concentration at 12 h / concentration at 0 h / concentration at 1 h / concentration at 2 h / concentration at 4 h / concentration at 9 h / concentration at 13 h / concentration at 24 h / concentration at 36 h / concentration at 48 h / concentration at 72 h / concentration at 96 h / concentration at 144 h / concentration at 168 h: human, po, Plasma concentration of lisinopril; for concentration at 3 h: nominal time 3 h; for concentration at 3 h / concentration at 10 h / concentration at 6 h / concentration at 5 h / concentration at 7 h / concentration at 8 h / concentration at 11 h / concentration at 12 h / concentration at 0 h / concentration at 1 h / concentration at 2 h / concentration at 4 h / concentration at 9 h / concentration at 13 h / concentration at 24 h / concentration at 36 h / concentration at 48 h / concentration at 72 h / concentration at 96 h / concentration at 144 h / concentration at 168 h / Plasma concentration of lisinopril: reference (R) tablets; for concentration at 10 h: nominal time 10 h; for concentration at 6 h: nominal time 6 h; for concentration at 5 h: nominal time 5 h; for concentration at 7 h: nominal time 7 h; for concentration at 11 h: nominal time 11 h; for concentration at 12 h: nominal time 12 h; for concentration at 0 h: nominal time 0 h; for concentration at 2 h: nominal time 2 h; for concentration at 4 h: nominal time 4 h; for concentration at 9 h: nominal time 9 h; for concentration at 13 h: nominal time 13 h; for concentration at 24 h: nominal time 24 h; for concentration at 36 h: nominal time 36 h; for concentration at 48 h: nominal time 48 h; for concentration at 72 h: nominal time 72 h; for concentration at 96 h: nominal time 96 h; for Plasma concentration of lisinopril: oral, listed as LSN;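 as to Plasma concentration of lisinopril: single tablet dose 10 mg/5 mg fixed combination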
Protocol: as §1, §2, §3, §4, §5, §6

[4] = plasma, Max, maximum among subjects
[5] = plasma, Mean, mean of 37 subjects
[6] = plasma, Min, minimum among subjects
[7] = lisinopril, intra-subject coefficient of variation

Structure (SMILES): NCCCC[C@H](N[C@@H](CCc1ccccc1)C(=O)O)C(=O)N1CCC[C@H]1C(=O)O [lisinopril]
- Intra-CV (%) of AUC0-t [1]: 19.3%
- Intra-CV (%) of AUC0-∞ [1]: 17.0%
- Intra-CV (%) of Cmax [1]: 24.3%
- Time to appearance of antihypertensive effect (blood pressure): ≤ 1 h
- Time to peak antihypertensive effect (blood pressure): about 6 h
- concentration at 0 h (clinical): 0.517 ng/mL
- Decrease of AUC0-24 by concomitant EGCG-concentrated green tea extract [2]: 69%
- Decrease of AUC0-∞ by concomitant EGCG-concentrated green tea extract [2]: 67%
- Decrease of Cmax by concomitant EGCG-concentrated green tea extract [2]: 71%
- Mean fecal recovery of intact drug [2]: 69%
- concentration at 3 h ([3]; in vivo, Max, maximum among subjects): 22.4 ng/mL
- concentration at 10 h ([3]; in vivo, Mean, mean of 36 subjects): 12.9 ng/mL
- concentration at 6 h ([3]; in vivo, Mean, mean of 37 subjects): 13.3 ng/mL
- concentration at 3 h ([3]; in vivo, individual subjects): 22.4 ng/mL
- concentration at 5 h ([3]; in vivo, individual subjects): 12.9 ng/mL
- concentration at 6 h ([3]; in vivo, individual subjects): 22.4 ng/mL
- concentration at 7 h ([3]; in vivo, individual subjects): 22.4 ng/mL
- concentration at 8 h ([3]; in vivo, individual subjects, nominal time 8 h): 22.4 ng/mL
- concentration at 11 h ([3]; in vivo, individual subjects): 12.9 ng/mL
- concentration at 12 h ([3]; in vivo, individual subjects): 13.3 ng/mL
- concentration at 0 h [3, 4]: 0.532 ng/mL
- concentration at 1 h ([3]; plasma, Max, maximum among subjects, nominal time 1 h): 3.22 ng/mL
- concentration at 2 h [3, 4]: 12 ng/mL
- concentration at 4 h [3, 4]: 29.2 ng/mL
- concentration at 5 h [3, 4]: 29.7 ng/mL
- concentration at 6 h [3, 4]: 29.5 ng/mL
- concentration at 7 h [3, 4]: 29.8 ng/mL
- concentration at 8 h ([3]; plasma, Max, maximum among subjects, nominal time 8 h): 27.4 ng/mL
- concentration at 9 h [3, 4]: 27.1 ng/mL
- concentration at 10 h [3, 4]: 24.1 ng/mL
- concentration at 11 h [3, 4]: 21.9 ng/mL
- concentration at 12 h [3, 4]: 20.8 ng/mL
- concentration at 13 h [3, 4]: 19 ng/mL
- concentration at 24 h [3, 4]: 8.44 ng/mL
- concentration at 36 h [3, 4]: 3.64 ng/mL
- concentration at 48 h [3, 4]: 3.23 ng/mL
- concentration at 72 h [3, 4]: 2.87 ng/mL
- concentration at 96 h [3, 4]: 2.72 ng/mL
- concentration at 144 h ([3]; plasma, Max, maximum among subjects, nominal time 144 h): 2.07 ng/mL
- concentration at 168 h ([3]; plasma, Max, maximum among subjects, nominal time 168 h): 1.66 ng/mL
- concentration at 0 h [3, 5]: 0.0284 ng/mL
- concentration at 1 h ([3]; plasma, Mean, mean of 37 subjects, nominal time 1 h): 0.795 ng/mL
- concentration at 2 h [3, 5]: 2.85 ng/mL
- concentration at 3 h [3, 5]: 5.92 ng/mL
- concentration at 4 h [3, 5]: 9.3 ng/mL
- concentration at 5 h [3, 5]: 11.9 ng/mL
- concentration at 7 h [3, 5]: 13.9 ng/mL
- concentration at 8 h ([3]; plasma, Mean, mean of 37 subjects, nominal time 8 h): 14 ng/mL
- concentration at 9 h [3, 5]: 13.5 ng/mL
- concentration at 11 h [3, 5]: 12 ng/mL
- concentration at 12 h [3, 5]: 10.8 ng/mL
- concentration at 13 h [3, 5]: 9.81 ng/mL
- concentration at 24 h [3, 5]: 4.32 ng/mL
- concentration at 36 h [3, 5]: 2.32 ng/mL
- concentration at 48 h [3, 5]: 1.88 ng/mL
- concentration at 72 h [3, 5]: 1.46 ng/mL
- concentration at 96 h [3, 5]: 1.21 ng/mL
- concentration at 144 h ([3]; plasma, Mean, mean of 37 subjects, nominal time 144 h): 0.741 ng/mL
- concentration at 168 h ([3]; plasma, Mean, mean of 37 subjects, nominal time 168 h): 0.639 ng/mL
- concentration at 0 h [3, 6]: 0 ng/mL
- concentration at 1 h ([3]; plasma, Min, minimum among subjects, nominal time 1 h): 0 ng/mL
- concentration at 2 h [3, 6]: 0 ng/mL
- concentration at 3 h [3, 6]: 0.89 ng/mL
- concentration at 4 h [3, 6]: 1.37 ng/mL
- concentration at 5 h [3, 6]: 2.12 ng/mL
- concentration at 6 h [3, 6]: 3.02 ng/mL
- concentration at 7 h [3, 6]: 3.34 ng/mL
- concentration at 8 h ([3]; plasma, Min, minimum among subjects, nominal time 8 h): 3.75 ng/mL
- concentration at 9 h [3, 6]: 4.2 ng/mL
- concentration at 10 h [3, 6]: 4.09 ng/mL
- concentration at 11 h [3, 6]: 3.97 ng/mL
- concentration at 12 h [3, 6]: 3.57 ng/mL
- concentration at 13 h [3, 6]: 3.73 ng/mL
- concentration at 24 h [3, 6]: 2.31 ng/mL
- concentration at 36 h [3, 6]: 1.27 ng/mL
- concentration at 48 h [3, 6]: 0.976 ng/mL
- concentration at 72 h [3, 6]: 0.736 ng/mL
- concentration at 96 h [3, 6]: 0.564 ng/mL
- concentration at 144 h ([3]; plasma, Min, minimum among subjects, nominal time 144 h): 0 ng/mL
- concentration at 168 h ([3]; plasma, Min, minimum among subjects, nominal time 168 h): 0 ng/mL
- Plasma concentration of lisinopril ([3]; individual subjects, nominal time 1 h): 0.899 ng/mL and 0.567 ng/mL and 0.719 ng/mL and 1.48 ng/mL and 3.22 ng/mL and 1.13 ng/mL and 0.941 ng/mL and 3.14 ng/mL and 0.842 ng/mL and 1.25 ng/mL and 0.826 ng/mL and 0.793 ng/mL and 1.55 ng/mL and 0.556 ng/mL and 0.744 ng/mL and 1.26 ng/mL and 1.43 ng/mL and 0.747 ng/mL and 1.81 ng/mL and 0.710 ng/mL and 0.799 ng/mL and 0.831 ng/mL and 2.32 ng/mL
- Plasma concentration of lisinopril ([3]; individual subjects, nominal time 8 h): 13.3 ng/mL
- Plasma concentration of lisinopril ([3]; individual subjects, nominal time 144 h): 1.05 ng/mL and 0.866 ng/mL and 2.07 ng/mL and 0.911 ng/mL and 0.569 ng/mL and 0.775 ng/mL and 0.691 ng/mL and 0.777 ng/mL and 0.834 ng/mL and 0.868 ng/mL and 0.514 ng/mL and 0.885 ng/mL and 0.919 ng/mL and 1.07 ng/mL and 1.00 ng/mL and 1.32 ng/mL and 0.715 ng/mL and 0.954 ng/mL and 1.83 ng/mL and 0.661 ng/mL and 0.869 ng/mL and 0.760 ng/mL and 0.582 ng/mL and 0.969 ng/mL and 0.992 ng/mL and 0.736 ng/mL and 0.576 ng/mL and 1.56 ng/mL and 1.10 ng/mL
- Plasma concentration of lisinopril ([3]; individual subjects, nominal time 168 h): 0.904 ng/mL and 0.689 ng/mL and 1.66 ng/mL and 0.780 ng/mL and 0.534 ng/mL and 0.708 ng/mL and 0.504 ng/mL and 0.629 ng/mL and 0.750 ng/mL and 0.711 ng/mL and 0.787 ng/mL and 0.832 ng/mL and 0.987 ng/mL and 0.890 ng/mL and 1.20 ng/mL and 0.696 ng/mL and 0.773 ng/mL and 0.528 ng/mL and 1.38 ng/mL and 0.522 ng/mL and 0.761 ng/mL and 0.659 ng/mL and 0.502 ng/mL and 0.849 ng/mL and 0.785 ng/mL and 0.620 ng/mL and 0.572 ng/mL and 1.04 ng/mL
- Intra-CV (%) of AUC0-t [3, 7]: 13.3%
- Intra-CV (%) of AUC0-∞ [3, 7]: 12.9%
- Intra-CV (%) of Cmax [3, 7]: 22.4%
